Source: patent US8450361B2, “Substituted indole and azaindole oxoacetyl piperazinamide derivatives” (priority 2010, dated 2013)

System: HIV-1
Test: Single-round infectious HIV-1 luciferase reporter virus infection of HeLa CD4 cells
Assay type: cell-based
Details: Human immunodeficiency virus 1, HeLa, 72 h, read-out: EC50 Group from Table 1
Method: • Virus production—Human embryonic Kidney cell line, 293T, was propagated in Dulbecco's Modified Eagle Medium (Invitrogen, Carlsbad, Calif.) containing 10% fetal Bovine serum (FBS, Sigma, St. Louis, Mo.). • Virus infection—Human epithelial cell line, HeLa, expressing the HIV-1 receptor CD4 was propagated in Dulbecco's Modified Eagle Medium (Invitrogen, Carlsbad, Calif.) containing 10% fetal Bovine serum (FBS, Sigma, St. Louis, Mo.) and supplemented with 0.2 mg/mL Geneticin (Invitrogen, Carlsbad, Calif.). Virus—Single-round infectious reporter virus was produced by co-transfecting human embryonic Kidney 293 cells with an HIV-1 envelope DNA expression vector and a proviral cDNA containing an envelope deletion mutation and the luciferase reporter gene inserted in place of HIV-1 nef sequences (Chen et al, Ref 41). Transfections were performed using lipofectAMINE PLUS reagent as described by the manufacturer (Invitrogen, Carlsbad, Calif.). Experiment • 1. HeLa CD4 cells were plated in 96 well plates at a cell density of 1×10^4 cells per well in 100 μl Dulbecco's Modified Eagle Medium containing 10% fetal Bovine serum and incubated overnight. • 2. Compound was added in a 2 μl dimethylsulfoxide solution, so that the final assay concentration would be ≦10 μM. • 3. 100 μl of single-round infectious reporter virus in Dulbecco's Modified Eagle Medium was then added to the plated cells and compound at an approximate multiplicity of infection (MOI) of 0.01, resulting in a final volume of 200 μl per well. • 4. Virally-infected cells were incubated at 37 degrees Celsius, in a CO2 incubator, and harvested 72 h after infection. • 5. Viral infection was monitored by measuring luciferase expression from viral DNA in the infected cells using a luciferase reporter gene assay kit, as described by the manufacturer (Roche Molecular Biochemicals, Indianapolis, Ind.). Infected cell supernatants were removed and 50 μl of lysis buffer was added per well. After 15 minutes, 50 μl of freshly-reconstituted luciferase assay reagent was added per well. Luciferase activity was then quantified by measuring luminescence using a Wallac microbeta scintillation counter. • 6. The percent inhibition for each compound was calculated by quantifying the level of luciferase expression in cells infected in the presence of each compound as a percentage of that observed for cells infected in the absence of compound and subtracting such a determined value from 100. • 7. An EC50 provides a method for comparing the antiviral potency of the compounds of this invention. The effective concentration for fifty percent inhibition (EC50) was calculated with the Microsoft Excel Xlfit curve fitting software. For each compound, curves were generated from percent inhibition calculated at 10 different concentrations by using a four parameter logistic model (model 205). Table 1 is the key for the data in Table 2. Results

## COC(=O)c1cc(NC(=O)Nc2cccc3c(C(=O)C(=O)N4CCN(C(=O)c5ccccc5)C[C@H]4C)c[nH]c23)cc(C(=O)OC)c1 [P-C-16]
  EC50: < 1000 nM

## CCOC(=O)CCCCCNC(=O)Nc1cccc2c(C(=O)C(=O)N3CCC(=C(C#N)c4ccccc4)CC3)c[nH]c12 [P-C-8]
  EC50: < 1000 nM

## COC(=O)[C@H]1OC(C)(C)O[C@@H]1C(=O)Nc1cccc2c(C(=O)C(=O)N3CCN(C(=O)c4ccccc4)C[C@H]3C)c[nH]c12 [P-A-13]
  EC50: < 1000 nM

## CC(=O)Nc1ccc(F)c2c(C(=O)C(=O)N3CCC(=C(C#N)c4ccccn4)CC3)c[nH]c12 [P-B-1]
  EC50: < 1000 nM

## CCOC(=O)CCCNC(=O)Nc1cccc2c(C(=O)C(=O)N3CCN(C(=O)c4ccccc4)C[C@H]3C)c[nH]c12 [P-C-5]
  EC50: < 1000 nM

## COC(=O)CCCNC(=O)Nc1cccc2c(C(=O)C(=O)N3CCN(C(=O)c4ccccc4)C[C@H]3C)c[nH]c12 [P-C-4]
  EC50: < 1000 nM

## COC(=O)c1cc(NC(=O)Nc2cccc3c(C(=O)C(=O)N4CCC(=C(C#N)c5ccccc5)CC4)c[nH]c23)cc(C(=O)OC)c1 [P-C-17]
  EC50: < 1000 nM

## C[C@@H]1CN(C(=O)c2ccccc2)CCN1C(=O)C(=O)c1c[nH]c2c(NC(=O)c3cccc(B(O)O)c3)cccc12 [P-A-22]
  EC50: < 1000 nM

## C[C@@H]1CN(C(=O)c2ccccc2)CCN1C(=O)C(=O)c1c[nH]c2c(NC(=O)NCCOCCOCCNC(=O)c3cccc(B(O)O)c3)cccc12 [P-C-401]
  EC50: < 1000 nM

## N#CC(=C1CCN(C(=O)C(=O)c2c[nH]c3c(NC(=O)NCCC(=O)O)cccc23)CC1)c1ccccc1 [P-I-3]
  EC50: < 1000 nM

## CC(=O)OCC(=O)Nc1cccc2c(C(=O)C(=O)N3CCN(C(=O)c4ccccc4)C[C@H]3C)c[nH]c12 [P-A-4]
  EC50: < 1000 nM

## CCOC(=O)CCNC(=O)Nc1cccc2c(C(=O)C(=O)N3CCC(=C(C#N)c4ccccc4)CC3)c[nH]c12 [P-C-3]
  EC50: < 1000 nM

## C[C@@H]1CN(C(=O)c2ccccc2)CCN1C(=O)C(=O)c1c[nH]c2c(NC(=O)Nc3ccc(S(=O)(=O)O)cc3)cccc12 [P-C-19]
  EC50: < 1000 nM

## N#CC(=C1CCN(C(=O)C(=O)c2c[nH]c3c(NC(=O)NC4CCN(C(=O)C(F)(F)F)CC4)cccc23)CC1)c1ccccc1 [P-C-25]
  EC50: < 1000 nM

## C[C@@H]1CN(C(=O)c2ccccc2)CCN1C(=O)C(=O)c1c[nH]c2c(NC(=O)C(=O)O)cccc12 [P-A-18]
  EC50: < 1000 nM

## N#CC(=C1CCN(C(=O)C(=O)c2c[nH]c3c(NC(=O)NC(CCC(=O)O)C(=O)O)cccc23)CC1)c1ccccc1 (stereo not drawn) [P-I-8]
  EC50: < 1000 nM

## C[C@@H]1CN(C(=O)c2ccccc2)CCN1C(=O)C(=O)c1c[nH]c2c(NC(=O)NCCCC(=O)O)cccc12 [P-I-4]
  EC50: < 1000 nM

## COC(=O)NCCCCNC(=O)Nc1cccc2c(C(=O)C(=O)N3CCN(C(=O)c4ccccc4)C[C@H]3C)cn(C(=O)NCCCCNC(=O)OC)c12 [P-C-115]
  EC50: < 1000 nM

## CCOC(=O)CCNC(=O)Nc1cccc2c(C(=O)C(=O)N3CCN(C(=O)c4ccccc4)C[C@H]3C)c[nH]c12 [P-C-2]
  EC50: < 1000 nM

## C[C@@H]1CN(C(=O)c2ccccc2)CCN1C(=O)C(=O)c1c[nH]c2c(NC(=O)CCC(=O)O)cccc12 [P-A-8]
  EC50: < 1000 nM

## C[C@@H]1CN(C(=O)c2ccccc2)CCN1C(=O)C(=O)c1c[nH]c2c(NC(=O)[C@H]3OC(C)(C)O[C@@H]3C(=O)O)cccc12 [P-A-14]
  EC50: < 1000 nM

## C[C@@H]1CN(C(=O)c2ccccc2)CCN1C(=O)C(=O)c1c[nH]c2c(NC(=O)NCCCCCCCCNC(=O)Nc3ccc(B(O)O)cc3)cccc12 [P-C-109]
  EC50: < 1000 nM

## CC/N=C(\NCCCN(C)C)Nc1cccc2c(C(=O)C(=O)N3CCN(C(=O)c4ccccc4)C[C@H]3C)c[nH]c12 [P-F-2]
  EC50: < 1000 nM

## CC(=O)Nc1ccc(F)c2c(C(=O)C(=O)N3CCN(C(=O)c4ccccc4)CC3)c[nH]c12 [P-B-2]
  EC50: < 1000 nM

## C[C@@H]1CN(C(=O)c2ccccc2)CCN1C(=O)C(=O)c1c[nH]c2c(NC(=O)NCCCCNC(=O)Nc3ccc(B(O)O)cc3)cccc12 [P-C-103]
  EC50: < 1000 nM

## CCOC(=O)c1ccccc1NC(=O)Nc1cccc2c(C(=O)C(=O)N3CCC(=C(C#N)c4ccccc4)CC3)c[nH]c12 [P-C-11]
  EC50: < 1000 nM

## C[C@@H]1CN(C(=O)c2ccccc2)CCN1C(=O)C(=O)c1c[nH]c2c(NC(=O)[C@@H]3OC(C)(C)O[C@H]3C(=O)O)cccc12 [P-A-16]
  EC50: < 1000 nM

## C[C@@H]1CN(C(=O)c2ccccc2)CCN1C(=O)C(=O)c1c[nH]c2c(NC(=O)NCCCCCCNC(=O)Nc3ccc(B(O)O)cc3)cccc12 [P-C-106]
  EC50: < 1000 nM

## C[C@@H]1CN(C(=O)c2ccccc2)CCN1C(=O)C(=O)c1c[nH]c2c(NC(=O)Nc3ccccc3C(=O)O)cccc12 [P-I-9]
  EC50: < 1000 nM

## C[C@@H]1CN(C(=O)c2ccccc2)CCN1C(=O)C(=O)c1c[nH]c2c(NC(=O)Nc3ccc(B(O)O)cc3)cccc12 [P-C-204]
  EC50: < 1000 nM

## CCOC(=O)CCCNC(=O)Nc1cccc2c(C(=O)C(=O)N3CCC(=C(C#N)c4ccccc4)CC3)c[nH]c12 [P-C-6]
  EC50: < 1000 nM

## C[C@@H]1CN(C(=O)c2ccccc2)CCN1C(=O)C(=O)c1c[nH]c2c(NC(=O)NCC(=O)O)cccc12 [P-I-18]
  EC50: < 1000 nM

## CCOC(=O)CCCNC(=O)Nc1ncc(F)c2c(C(=O)C(=O)N3CCN(C(=O)c4ccccc4)CC3)c[nH]c12 [P-C-26]
  EC50: < 1000 nM

## C[C@@H]1CN(C(=O)c2ccccc2)CCN1C(=O)C(=O)c1c[nH]c2c(NC(=O)C[N+](C)(C)C)cccc12 [P-A-2]
  EC50: < 1000 nM

## O=C(O)CCCNC(=O)Nc1ncc(F)c2c(C(=O)C(=O)N3CCN(C(=O)c4ccccc4)CC3)c[nH]c12 [P-I-16]
  EC50: < 1000 nM

## C[C@@H]1CN(C(=O)c2ccccc2)CCN1C(=O)C(=O)c1c[nH]c2c(NC(=O)c3ccc(B(O)O)cc3)cccc12 [P-A-23]
  EC50: < 1000 nM

## C[C@@H]1CN(C(=O)c2ccccc2)CCN1C(=O)C(=O)c1c[nH]c2c(NC(=O)CO)cccc12 [P-I-1]
  EC50: < 1000 nM

## CC(=O)Nc1ccc(F)c2c(C(=O)C(=O)N3CC/C(=C(\C#N)c4cccnc4)CC3C)c[nH]c12 (stereo not drawn) [P-B-7]
  EC50: < 1000 nM

## C[C@@H]1CN(C(=O)c2ccccc2)CCN1C(=O)C(=O)c1c[nH]c2c(NC(=O)CNC(C)(C)C)cccc12 [P-A-1]
  EC50: < 1000 nM

## C[C@@H]1CN(C(=O)c2ccccc2)CCN1C(=O)C(=O)c1c[nH]c2c(NC(=O)C3OC3C(=O)O)cccc12 (stereo partly drawn) [P-A-10]
  EC50: < 1000 nM

## C[C@@H]1CN(C(=O)c2ccccc2)CCN1C(=O)C(=O)c1c[nH]c2c(NC(=O)Nc3cccc(C(=O)O)c3)cccc12 [P-I-11]
  EC50: < 1000 nM

## CNCCN1CCN(c2cccc3c(C(=O)C(=O)N4CCN(C(=O)c5ccccc5)C[C@H]4C)c[nH]c23)C1=O [P-H-1]
  EC50: < 1000 nM
